Laboratory results published in patent publication US20030049666A1, “Tissue culture assay for measuring drug induced translational recoding at premature stop codons and frameshift mutations” (University of Utah, priority 2001, published 2003).

How the values were obtained:
[1] = system: cystic fibrosis transmembrane conductance regulator (CFTR) protein; details: bronchial cell line carrying a nonsense mutation in the CFTR gene; cited from earlier work
[2] = system: overall translation; experiment: inhibition of translation monitored by reduction in renilla luciferase activity in control transfections; type: cell-based, human; details: highest concentration tested, HEK293 control transfections
Experimental: Transfections were performed using lipofectamine reagent (LifeTechnologies). HEK293 cells (0.15×10^5)were plated in 0.34-cm^2 wells and grown for 24 to 48 hours according to methods well known in the art. All cells were transfected with 0.3 μl of lipofectin and 0.075 μg of plasmid DNA for 15 hours, in serum-free media. Fresh media with serum and varying levels of aminoglycosides (Sigma) were then added, and incubation continued for 24 hours.
(§1) Cells were lysed using passive lysis buffer (Promega, Madison, Wis., and both renilla and firefly luciferase activities were determined using the dual luciferase reporter assay (Promega) on a Dynatech MLX Microtiter Plate Luminometer (Burlington, Mass.). For all reactions, light emission was measured for 2 to 12 seconds after 100μl of luminescence substrate was injected. Stop codon readthrough was calculated by comparing the ratio of firefly to renilla luciferase activity in cultures transfected with p2luc stop codon constructs and compared with ratios obtained from cultures transfected with p2luc control constructs.
A significant difference in stop codon readthrough induced by the aminoglycosides was observed between UGA, UAG, and UAA. […] The nucleotide in the fourth position immediately after the stop codon also contributed to the frequency of stop codon readthrough. This effect is particularly obvious for UGA N, where N=C>U>A≧G in order of most to least stop codon readthrough. […] Inhibition of translation was monitored by examining the reduction in renilla luciferase activity in control transfections.

[3] = system: stop codons UGA N, UAG N, and UAA N; experiment: dual luciferase (p2luc) stop codon readthrough assay in HEK293 cells; type: cell-based, human; details: for concentration at which maximal levels of stop codon readthrough were observed: aminoglycoside in growth media for 24 hours; for readthrough of UAA A stop codon: UAA A construct, tissue culture (HEK293)
Text: The p2luc dual luciferase reporter plasmid system, as described in U.S. Pat. No. 6,143,502, was used to measure the effect of aminoglycosides on stop codon readthrough in tissue culture cells. In this system, the renilla (sea pansy) luciferase and firefly luciferase reporter coding sequences are located on either side of a stop codon (FIG. 1). Stop codon and control constructs (containing a sense codon in place of the stop codon) are transfected in parallel in tissue culture cells. Expression of the upstream renilla luciferase gene provides a way to normalize for differences in transfection efficiencies, translation initiation, and mRNA levels between transfected cultures. […] M. R. Culbertson, RNA surveillance. Unforeseen consequences for gene expression, inherited generic disorders and cancer, 15 Trends Genet. 74-80 (1999). The ability of the dual reporter system to control for differences in mRNA levels between normal and nonsense-containing sequences provides a distinct advantage compared with single reporter or direct protein analysis. After normalization, the differences in downstream firefly luciferase activities between cultures transfected with the stop codon and control sense codon constructs reflect the frequency of stop codon readthrough.
(§2) The stop codons of SEQ ID NO: 1 through SEQ ID NO: 12 and SEQ ID NO: 25 were cloned between the two luciferase genes of p2luc, and control reporter plasmids (SEQ ID NO: 13-24) were produced by changing the first nucleotide of the stop codon to a C. More particularly, complimentary oligonucleotides corresponding to the sequences SEQ ID NO: 1 through SEQ ID NO: 25 were synthesized on an Applied Biosystems model 380C synthesizer (Foster City, Calif.) such that when annealed, they would have SalI- and BamHI-compatible ends. The oligonucleotides were ligated in SalI- and BamHI-digested p2luc vector according to methods well known in the art and transformed to Escherichia coli strain SU1675. DNA sequences were verified by autothermocycler sequencing, and plasmids were purified using the Qiagen Midiprep Kit (Valencia, Calif.) according to the manufacturer's specifications.
The oligonucleotides corresponding to SEQ ID NO: 1 through SEQ ID NO: 12 were identical except for nucleotides 13-16, which contained in-frame stop codons followed by a C, T, A, or G nucleotide. The oligonucleotides corresponding to SEQ ID NO: 13 through SEQ ID NO: 24 were the respective controls, which were identical to the oligonucleotides corresponding to SEQ ID NO: 1 through SEQ ID NO: 12 except the first nucleotide of the stop codon was replaced with a C nucleotide, thus changing the stop codon to a sense codon. The oligonucleotide corresponding to SEQ ID NO: 25 comprises the sequence surrounding the mdx mouse dystrophin mutation.
Translational readthrough of the stop codons of oligonucleotides corresponding to SEQ ID NO: 1 through SEQ ID NO: 12 was determined in a human embryonic kidney cell line (HEK293, e.g., ATCC CRL-1573) grown in the presence of varying amounts of G-418, gentamicin, and paromomycin, which have been particularly effective in inducing stop codon readthrough in yeast. A. Singh et al., Phenotypic suppression and misreading Saccharomyces cerevisiae, 277 Nature 146-148 (1979); E. Palmer et al., Phenotypic suppression of nonsense mutants in yeast by aminoglycoside antibiotics, 277 Nature 148-150 (1979). HEK293 cells were maintained as monolayer cultures growing in Dulbecco's Modified Eagle Medium with 1,000 mg/L of D-glucose, L-glutamine, pyridoxine hydrochloride, and 110 mg/L of sodium pyruvate supplemented with 10% fetal bovine serum and 50 units/ml penicillin/50 µg/ml streptomycin. All cells were incubated at 37° C. in an atmosphere of 5% CO2. All media, penicillin, and streptomycin were obtained from LifeTechnologies (Rockville, Md.); aminoglycosides were purchased from Sigma (St Louis, Mo.); and all sera were obtained from HyClone (Logan, Utah). […]

[4] = system: dystrophin; details: cited from earlier work
[5] = system: mdx premature stop codon / UGA C control; experiment: dual luciferase stop codon readthrough assay in mouse myoblast C2C12 cell line; type: cell-based
Text: as §2, with “DNA sequences were verified by autothermocycler sequencing, and plasmids were purified using the Qiagen Midiprep Kit (Valencia, Calif.) according to the manufacturer's specifications.” left out
as §1, with “constructs. […]” for “constructs.”

In the case of `CN[C@@H]1[C@@H](O)[C@@H](O[C@@H]2[C@@H](O)[C@H](O[C@H]3O[C@H]([C@@H](C)O)[C@@H](O)[C@H](O)[C@H]3N)[C@@H](N)C[C@H]2N)OC[C@]1(C)O` [G-418], the “expression of CFTR protein” value [1] is listed as “restore the expression”, the “reduction in overall translation” value [2] is listed as roughly 50% and the “stop codon readthrough on a mass basis, comparison of the three aminoglycosides” value ([3]; HEK293 cells) is listed as “induced the most readthrough on a mass basis”. For the same compound, the “concentration at which maximal levels of stop codon readthrough were observed” value ([3]; HEK293 cells) was 0.4 mg/mL and the “readthrough of UAA A stop codon” value [3] was “approximately 1%”.

With `NC[C@@H]1O[C@H](O[C@H]2[C@@H](O)[C@H](O[C@@H]3[C@@H](O)[C@H](N)C[C@H](N)[C@H]3O[C@H]3O[C@H](CO)[C@@H](O)[C@H](O)[C@H]3N)O[C@@H]2CO)[C@H](N)[C@@H](O)[C@@H]1O` [paromomycin] the “reduction in overall translation” value [2] was “little effect on translation”, the “concentration at which maximal levels of stop codon readthrough were observed” value ([3]; HEK293 cells) was 2 mg/mL and the “readthrough of UAA A stop codon” value [3] was “approximately 1%”.

For gentamicin, the “effect on premature stop codon in the dystrophin gene of the mdx mouse” value [4] is listed as “can partially reverse the effects of a premature stop codon”, the “full-length dystrophin protein expressed on aminoglycoside treatment” value ([4]; mdx mouse) is listed as 10 to 20% and the “expression of CFTR protein” value [1] is listed as “restore the expression”. For the same compound, the “gentamicin-induced readthrough of mdx sequence in C2C12 cells compared with UAA A construct in HEK293 cells” value [5] was “No increase”, the “reduction in overall translation” value [2] was roughly 20% and the “readthrough of UAA A stop codon” value [3] was “approximately 1%”.
